Tested on: ACE2-293T cells
Conditions: for Cell viability (%): 10 μM, 24 hours, ACE2-293T cells, vehicle group = 100%, mean ± SD (n = 3); for Cytotoxicity to ACE2-293T cells (result in words): dose of 10 μM

| Compound | Cell viability (%) | Cytotoxicity to ACE2-293T cells (result in words) |
| --- | --- | --- |
| COc1cc2c3cc1Oc1c(OC)c(OC)cc4c1[C@@H](Cc1ccc(O)c(c1)Oc1ccc(cc1)C[C@@H]3N(C)CC2)N(C)CC4 [Berbamine] | 98.15 ± 3.04 | caused no harms to the ACE2-293T cells |
| COc1cc2c3cc1Oc1c(O)c(OC)cc4c1[C@@H](Cc1ccc(O)c(c1)Oc1ccc(cc1)C[C@@H]3N(C)CC2)N(C)CC4 [Obamegine] | 98.19 ± 1.11 | caused no harms to the ACE2-293T cells |
| Bersavine | 95.42 ± 2.33 | caused no harms to the ACE2-293T cells |

From patent US12678471B2 (priority 2022, dated 2026)
